Values of other authors in patent US20200155524A1, “METHOD FOR REDUCING SIDE EFFECTS FROM ADMINISTRATION OF PHOSPHODIESTERASE-4 INHIBITORS” (ARCUTIS, INC., priority 2018, published 2020).
Like-named read-outs stand apart in the source and are kept apart here.

How the values were obtained:
[1] = tested on: psoriasis; conditions: after 4 weeks of dosing
[2] = tested on: PDE-4 isoforms and subtypes; conditions: different PDE-4 isoforms and subtypes
[3] = initial oral administration

half maximal inhibitory concentration (IC50) [2] | Tmax (time after administration to reach Cmax) ([3]; 250 mcg tablet) [h] | Tmax (time after administration to reach Cmax) ([3]; 500 mcg tablet) [h] | Structure (SMILES) | PASI 75 response rate [1] [%]
 |  |  | CCC(=O)OCC(=O)[C@@]1(OC(=O)CC)[C@@H](C)C[C@H]2[C@@H]3CCC4=CC(=O)C=C[C@]4(C)[C@@]3(F)[C@@H](O)C[C@@]21C [betamethasone dipropionate 0.064%, betamethasone dipropionate] | 32.7
subnanomolar |  |  | O=C(Nc1c(Cl)c[n+]([O-])cc1Cl)c1ccc(OC(F)F)c(OCC2CC2)c1 [roflumilast N-oxide, 3-cyclopropylmethoxy-4-difluoromethoxy-N-(3,5-dichloropyrid-4-yl 1-oxide)benzamide] | 
subnanomolar | 1 | 1 | O=C(Nc1c(Cl)cncc1Cl)c1ccc(OC(F)F)c(OCC2CC2)c1 [roflumilast, N-(3,5-dichloropyrid-4-yl)-3-cyclopropylmethoxy-4-difluoromethoxybenzamid-e] | 
